The subject of one data set is zein protein. Description: Mildness (Zein solubilization), standard Zein assay. Conditions: Table 5; 1% aqueous solution, 1.5 g zein, one hour.
Data set [1] is described as follows: Foaming protocol for Examples 26-36, 250 mL graduated cylinder. It counts as physicochemical. Conditions: Table 5, 1 g in 20 mL water, 250 mL cylinder, shaken 60 seconds. The method, then:
Protocol for Examples 26-36
One gram of final active mix is placed in a 250 mL glass-stoppered graduated cylinder and dispersed in 20 mL of distilled, de-ionized water; it is heated to 45° C. in a water bath until the temperature of the dispersion is at equilibrium. (note: For measurements done at 20° C., the water bath is set to 20° C. and the same procedure is followed). The sealed cylinder is then shaken vigorously for 60 seconds after which time the foam volume is measured in mL and recorded.

Data set [2] is described as follows: Foaming measurement protocol (Examples 1-25), 100 mL graduated cylinder. It counts as physicochemical. Conditions: 1 g active mix in 20 mL water, 45° C., shaken 60 seconds, 100 mL cylinder. As to the method:
Foaming Measurement Protocol (Examples 1-25)
One gram of final active mix is placed in a 100 mL glass stoppered graduated cylinder and dispersed in 20 mL of distilled de-ionized water; it is heated to 45° C. in a water bath until the temperature of the dispersion is at equilibrium. The sealed cylinder is then shaken vigorously for 60 seconds after which time the foam volume is measured in mL and recorded.

Description for zein protein: Mildness (Zein Solubilization)
This test is based on the correlation noted between the amount of zein solubilized by an aqueous surfactant solution and its irritancy; the more zein a surfactant dissolves, the greater its intrinsic irritation potential. The procedure is conducted gravimetrically: a 1% aqueous solution of surfactant mixture is added to 1.5 g of zein protein and this mixture is allowed to stir at a constant rate for one hour. This mixture is then centrifuged (for approximately 25 minutes at 4000 rpm) and the undissolved zein is isolated, rinsed and allowed to dry in a vacuum over at 60° C. to constant weight. The zein solubilized is determined by difference.

As to Coco N-Methyl Taurate, in the data set with zein protein, the Zein is 50.0%. In addition, the “Foam at 20° C.” value in data set [1] (20° C.) turned out to be 122 mL. In addition, the “Foam at 45° C.” value in data set [1] (45° C.) worked out at 135 mL.
On to “sodium lauroyl isethionate [SLI - Control]”, for which the results for the “Foam Vol.” value in data set [2] (Table 1) and in data set [2] (Table 2) were 89.5 mL and 95 mL, respectively.

These data come from patent US6562874B1, “Compositions comprising combination of DEFI and modified DEFI and methods of making” (Unilever Home & Personal Care USA division of Conopco, Inc., priority 1999, dated 2003).
